Data taken from paper PMC12566046, “Arylpiperazinyl-Benzocycloheptapyrrole-Carboxamides Endowed with Dual Anticancer and Antiviral Activities” (Molecules, 2025).
Like-named read-outs stand apart in the source and are kept apart here.

Experiments:
[1] = Cytotoxicity on uninfected Huh-7 cells (WST-8, crystal violet); settings: human, uninfected Huh-7 cells
Method: The toxicity of the compounds at the same concentration was tested on the same cells in parallel.
Cytotoxic effects were evaluated on uninfected cells using the WST-8 assay (Orangu, Cell Guidance Systems, Cambridge, UK) and the crystal violet assay [23]. […] Huh-7, MDCK, and Vero TMPRSS cells were seeded at 1 × 10^4, 1.5 × 10^4, and 1.2 × 10^4 cells/well, respectively, and incubated for 48 h (Huh-7 and MDCK) or 24 h (VERO TMPRSS), following conditions matching those of the corresponding antiviral assays in terms of timing and culture medium. At the end of incubation, the medium was replaced with a 10% WST-8 solution in DMEM and incubated for 1 h at 37 °C. Optical density (OD) was then measured at 450 nm using a Varioskan LUX plate reader (ThermoFisher Scientific, Milano, Italy). Subsequently, cells were fixed with 4% buffered formalin solution (Merck®, Darmstadt, Germany), stained with 1% crystal violet (Merck®, Darmstadt, Germany), and the dye was solubilized in 30% acetic acid for 30 min under shaking. OD was then measured at 595 nm as an additional readout of cell viability. The percentage of viability at each concentration was calculated using the formula:% viability = 100 × (ODcompound/ODuntreated control) where ODcompound and ODuntreated are the OD of the cells treated with compound or DMSO, respectively.
The CC50 value was determined by nonlinear regression analysis on GraphPad Prism 7 (San Diego, CA, USA).

[2] = Cytotoxicity on uninfected MDCK cells (WST-8, crystal violet); settings: dog
[3] = tested on: ZIKV, strain Brazil/2016/INMI1; test: ZIKV viral yield reduction assay on Huh-7 cells; assay type: cell-based, Zika virus; settings: Zika virus, Huh-7, read-out: ZIKV/Huh‐7 EC50
Method: We developed a protocol to screen the potential antiviral activity of compounds 1–20 against ZIKV (strain Brazil) on Huh-7 cells, against an H1N1 IAV strain (PR/8/1934) on MDCK cells, and against SARS-CoV-2 (strain Milano) on Vero-TMPRSS. Each compound was tested in duplicate at concentrations of 50 μM, 5 μM, and 0.5 μM. Treatment was applied immediately after infection, and at 24–48 h post-infection, supernatants were collected to assess viral yield, determined as PFU/mL for ZIKV and SARS-CoV-2 or as TCID50/mL for IAV. The test allowed us to evaluate both the antiviral action and the cytotoxicity of each compound, comparing them with reference compounds, such as sofosbuvir for ZIKV and EIDD-1931 for IAV and SARS-CoV-2 (Supplementary Materials, Figures S87–S89).
Viral yield reduction assays for ZIKV and SARS-CoV-2 were performed as previously described by Plicanti. Briefly, 1 × 10^4 Huh-7 cells/well and 1.2 × 10^4 VERO TMPRSS cells/well were infected with ZIKV (MOI 1) or SARS-CoV-2 (MOI 0.05) in a primary 96-well plate for 2 h at 37 °C, 5% CO2. […] Supernatants were collected after 48 h (Huh-7) or 24 h (VERO TMPRSS), diluted 3-fold, and added onto VERO E6 or VERO TMPRSS monolayers, respectively. After 2 h at 37 °C, the inoculum was replaced with 0.75% carboxymethyl cellulose (Merck®, Darmstadt, Germany) in DMEM 2% FBS. After 48–72 h, cells were then fixed with 4% buffered formalin solution (Merck®, Darmstadt, Germany) and stained with 1% crystal violet (Merck®, Darmstadt, Germany). Titres and percentage of inhibition were calculated as follows:
PFU/mL = number of plaques*3^n/vol infection, where n is the dilution where plaques were counted:% inhibition = 100 × (1 − Titre-compound/Titre-untreated control) where Titre-compound and Titre-untreated control are the titres (PFU/mL) obtained on cells treated with compound or DMSO, respectively.
SI was obtained by dividing CC50 by EC50 for each drug/virus/cell line. Compounds with SI values ≥ 10 were active in vitro.

[4] = tested on: MDA-MB-468 (breast cancer cell line); test: NCI-60 single-dose assay; assay type: cell-based, human; settings: Homo sapiens, MDA-MB-468, read-out: growth inhibition (GI%) and cytotoxicity (negative values)
Description: (§1) We first evaluated the cytotoxic activity of tricyclic-pyrrole carboxamides 1–20 using the NCI-60 cell line panel, representing nine different human cancers: leukemia, melanoma, and cancers of the lung, colon, central nervous system (CNS), ovary, kidney, prostate, and breast (the one-dose graph for compounds 1–20 is reported in Supplementary Materials, Figures S43–S62). Compounds 1, 5, 10, 11, 17, and 20 satisfied pre-determined threshold inhibition criteria in a minimum number of cell lines; therefore, they were also tested in the full five-dose assay (Figures S63–S68 in the Supplementary Materials).

[5] = tested on: MCF-7 (breast cancer cell line); test: NCI-60 single-dose assay; assay type: cell-based, human; settings: Homo sapiens, MCF7, read-out: growth inhibition (GI%) and cytotoxicity (negative values), MCF-7, 10^−5 M
Description: as §1

[6] = tested on: UACC-257 (melanoma cell line); test: NCI-60 single-dose assay; assay type: cell-based, human; settings: Homo sapiens, UACC-257, read-out: growth inhibition (GI%) and cytotoxicity (negative values)
Description: as §1

[7] = tested on: MALME-3M (melanoma cell line); test: NCI-60 single-dose assay; assay type: cell-based, human; settings: Homo sapiens, Malme-3M, read-out: growth inhibition (GI%) and cytotoxicity (negative values)
Description: as §1

[8] = tested on: T-47D (breast cancer cell line); test: NCI-60 single-dose assay; assay type: cell-based, human; settings: Homo sapiens, T47D, read-out: growth inhibition (GI%) and cytotoxicity (negative values)
Description: as §1

[9] = tested on: LOX IMVI (melanoma cell line); test: NCI-60 single-dose assay; assay type: cell-based, human; settings: Homo sapiens, LOX IMVI, read-out: growth inhibition (GI%) and cytotoxicity (negative values)
Description: as §1

M14 (melanoma cell line) = test: NCI-60 single-dose assay; assay type: cell-based, human; settings: Homo sapiens, M14, read-out: growth inhibition (GI%) and cytotoxicity (negative values)
Description: as §1

[10] = tested on: SK-MEL-2 (melanoma cell line); test: NCI-60 single-dose assay; assay type: cell-based, human; settings: Homo sapiens, SK-MEL-2, read-out: growth inhibition (GI%) and cytotoxicity (negative values)
Description: as §1

[11] = tested on: BT-549 (breast cancer cell line); test: NCI-60 single-dose assay; assay type: cell-based, human; settings: Homo sapiens, BT-549, read-out: growth inhibition (GI%) and cytotoxicity (negative values)
Description: as §1

[12] = tested on: MDA-MB-435 (melanoma cell line); test: NCI-60 single-dose assay; assay type: cell-based, human; settings: Homo sapiens, MDA-MB-435, read-out: growth inhibition (GI%) and cytotoxicity (negative values)
Description: as §1

[13] = tested on: SK-MEL-5 (melanoma cell line); test: NCI-60 single-dose assay; assay type: cell-based, human; settings: human
Description: as §1

[14] = tested on: MDA-MB-231/ATCC (breast cancer cell line); test: NCI-60 single-dose assay; assay type: cell-based, human; settings: Homo sapiens, MDA-MB-231, read-out: growth inhibition (GI%) and cytotoxicity (negative values)
Description: as §1

[15] = tested on: SK-MEL-28 (melanoma cell line); test: NCI-60 single-dose assay; assay type: cell-based, human; settings: Homo sapiens, SK-MEL-28, read-out: growth inhibition (GI%) and cytotoxicity (negative values)
Description: as §1

[16] = tested on: EKVX (non-small cell lung cancer cell line); test: NCI-60 single-dose assay; assay type: cell-based, human; settings: Homo sapiens, read-out: growth inhibition (GI%) and cytotoxicity (negative values)
Description: as §1

[17] = tested on: UACC-62 (melanoma cell line); test: NCI-60 single-dose assay; assay type: cell-based, human; settings: Homo sapiens, UACC-62, read-out: growth inhibition (GI%) and cytotoxicity (negative values)
Description: as §1

NCI-60 cell line panel = test: NCI-60 single-dose assay, whole panel; assay type: cell-based, human; settings: summary over the panel
Description: as §1

[18] = tested on: IAV strain A/PR/8/34 (H1N1)
in vitro [19] = settings: African green monkey
[20] = tested on: IAV strain A/PR/8/34 (H1N1); test: microbe, parasite or virus in culture; settings: Influenza A virus, MDCK
in vitro [21] = settings: dog

O=C(NCCN1CCN(c2ccc(Cl)c(Cl)c2)CC1)c1c(Cl)[nH]c2c1CCCc1ccccc1-2 [Compound 19]
CC50 at 48 h [1]: 12 µM | CC50 at 48 h [2]: 92.1 µM | EC50 [3]: 4.08 µM | inhibition at 10 µM [4]: 94.2% | inhibition at 10 µM [5]: < 60% | inhibition at 10 µM [6]: < 60% | inhibition at 10 µM [7]: < 60% | inhibition at 10 µM [8]: < 60% | inhibition at 10 µM [9]: < 60% | inhibition at 10 µM (M14 (melanoma cell line)): < 60% | inhibition at 10 µM [10]: < 60% | inhibition at 10 µM [11]: < 60% | inhibition at 10 µM [12]: < 60% | growth inhibition (GI%) and cytotoxicity (negative values) [13]: −24.28% | inhibition at 10 µM [14]: < 60% | inhibition at 10 µM [15]: < 60% | inhibition at 10 µM [16]: 61.7% | inhibition at 10 µM [17]: < 60% | growth inhibition (GI%) reached against cancer cell lines of the NCI-60 panel (NCI-60 cell line panel): > 90% | selectivity index (SI) ([18]; IAV, MDCK cells, CC50/EC50): 21.36 | IAV/MDCK SI ([18]; preliminary screening): < 12.17 | CC50 at 24 h (in vitro [19]): 40.8 µM | EC50 ([20]; 48 h): 4.31 µM | EC50 ([20]; read-out: IAV/MDCK EC50): 4.11 µM | CC50 (in vitro [21]): < 50 µM
